The values below come from patent US20240053326A1, “TESTING COLON CANCER DRUGS FOR IMMUNOMODULATORY EFFECTS” (BROWN UNIVERSITY, priority 2022, published 2024).

The subject of this test is HCT-116, HT-29, and KM12C colon cancer cell lines. Description: Cytokinome (cytokine, chemokine, growth factor) profiling of cell culture supernatant after small-molecule treatment, Luminex 200. Type of test: cell-based, human. The conditions noted are these: for decreases in VEGF: 48 h treatment at IC-10 to IC-90, slope of linear regression, count of drug/cell line groups (HCT-116, HT-29, KM12C) with analyte among top five most down-regulated. How it is done: We designed a high-throughput custom multiplex cytokine, chemokine, and growth factor profiling panel based on both pro- and anti-inflammatory markers, as well as cytokines and chemokines involved in the recruitment and activation of immune cells such as natural killer (NK) and T cells. Cell lines were treated with the drug panel and cell culture supernatants were analyzed using Luminex 200 technology (FIG. 2). Cell lines were treated at differing concentrations (IC-10, IC-30, IC-50, IC-70, and IC-90) to determine dose-response effects for each small-molecule. It is important to emphasize that the panel was designed to analyze soluble factors that are secreted or shed by tumor cells post-treatment with drug.
Cells were plated at 3.5×10^4 cells in a 48 well plate (Thermo Fisher Scientific, Waltham, MA, USA) in complete medium and incubated at 37° C. with 5% CO2. At 24 hours after plating, almost all the tumor cells were adherent to the bottom of the flask and the complete medium was replaced with drug-containing medium. Subsequently, the culture supernatants were collected after 48 hours of incubation and were frozen at −80° C. until the measurement of cytokines was performed. The day of analysis, samples were thawed and centrifuged to remove cellular debris.
An R&D systems Human Premixed Multi-Analyte Kit (R&D Systems, Inc., Minneapolis, MN) was run on a Luminex 200 Instrument (LX200-XPON-RUO, Luminex Corporation, Austin, TX) according to the manufacturer's instructions. Cell culture supernatant levels of TNF-alpha, IL-6, IL-8/CXCL8, Ferritin, IFN-beta, IL-10, CCL2/JE/MCP-1, VEGF, CXCL13/BLC/BCA-1, IFN-gamma, CCL20/MIP-3 alpha, CCL3/MIP-1 alpha, CCL22/MDC, CCL4/MIP-1 beta, IL-4, IL-17/IL-17a, TRAIL R2/TNFRSF10B, GM-CSF, CXCL5/ENA-78, CXCL9/MIG, G-CSF, CXCL11/I-TAC, Granzyme B, CCL5/RANTES, Prolactin, IFN-alpha, CXCL14/BRAK, IL-12/IL-23 p40, CXCL10/IP-10/CRG2, CCL7/MCP-3/MARC, IL-7, CCL8/MCP-2, TRANCE/TNFSF11/RANK L, IL-15, TRAIL R3/TNFRSF10C, CCL11/Eotaxin, IL-18/IL-1F4, TRAIL/TNFSF10, IL-21, and C-Reactive Protein/CRP were measured.
A quantitative analysis with 6 standards and a minimum of 50 counts per bead region was used with the Luminex to generate analyte values reported as picograms/milliliter (pg/mL). Cytokine concentrations less than the lower limit of detection for each particular cytokine were recoded as zero. Cytokines without detectable expression levels were removed from further analysis of each cell line. Each drug was tested at different inhibitory concentrations (IC-10, IC-30, IC-50, IC-70, and IC-90), and these varying concentrations were used to measure a dose-response effect on cytokine expression. Cytokine dose-response effect was modeled by simple linear regression for each drug. The slopes of the linear regressions were compared. Data analysis and visualization were generated using R (R Development Core Team, 2020).

Where [1] appears, read: 48 h, IC-10 to IC-90, regression slope, count of drug/cell line groups, top five most down-regulated.
Where [2] appears, read: 48 h, IC-10 to IC-90, regression slope, count of drug/cell line groups, top five most up-regulated.

Molecules are shown by their SMILES.

On to `Cn1cc(C2=C(c3coc4ccc(F)cc34)C(=O)NC2=O)c2cc3c(cc21)OCO3` [9-ING-41], for which the “decreases in VEGF” value is given as 3 out of 3. Moreover, under setting [1], the “decreases in CCL3/MIP-1 alpha” value was 2 out of 3 and the “decreases in CXCL9/MIG” value is on record as 3 out of 3. Under setting [2], the “increases in CXCL14/BRAK” value is on record as 3 out of 3, the “increases in IL-8/CXCL8” value is listed as 2 out of 3 and the “increases in sTRAIL-R3” value was 2 out of 3.
Consider `C[C@@H](Oc1cc(-c2cnn(C3CCNCC3)c2)cnc1N)c1c(Cl)ccc(F)c1Cl` [Crizotinib], for which the “decreases in VEGF” value is recorded as 3 out of 3. Under setting [1], the “decreases in CXCL9/MIG” value is listed as 2 out of 3 and the “decreases in CXCL13/BLC/BCA-1” value is recorded as 2 out of 3. Also, under setting [2], the “increases in CXCL14/BRAK” value is on record as 2 out of 3, the “increases in IL-8/CXCL8” value is on record as 2 out of 3 and the “increases in Prolactin” value is listed as 2 out of 3.
For the compound `O=C(Nc1cnn2ccc(N3CCC[C@@H]3c3cc(F)ccc3F)nc12)N1CC[C@H](O)C1` [Larotrectinib], the “decreases in VEGF” value was 3 out of 3. For the same compound, under setting [1], the “decreases in CCL3/MIP-1 alpha” value is given as 2 out of 3, the “decreases in CXCL9/MIG” value was 3 out of 3 and the “decreases in IL-8/CXCL8” value is 2 out of 3. Moreover, under setting [2], the “increases in CCL5/RANTES” value was 2 out of 3, the “increases in IL-18/IL-1F4” value is reported as 2 out of 3 and the “increases in Prolactin” value was 2 out of 3.
On to `CNC(=O)c1cc(Oc2ccc(NC(=O)Nc3ccc(Cl)c(C(F)(F)F)c3)c(F)c2)ccn1` [Regorafenib], for which the “decreases in VEGF” value was 3 out of 3. Further, under setting [1], the “decreases in CCL3/MIP-1 alpha” value is recorded as 2 out of 3, the “decreases in CXCL5/ENA-78” value is recorded as 2 out of 3, the “decreases in CXCL9/MIG” value was 3 out of 3 and the “decreases in IL-8/CXCL8” value is listed as 3 out of 3. Moreover, under setting [2], the “increases in CXCL14/BRAK” value was 2 out of 3 and the “increases in Prolactin” value is given as 2 out of 3.
Consider `COc1ccc(CN2C3CC2CN(c2ccc(-c4cc(OCC(C)(C)O)cn5ncc(C#N)c45)cn2)C3)cn1` [Selpercatinib], for which the “decreases in VEGF” value is on record as 3 out of 3. In addition, under setting [1], the “decreases in CCL3/MIP-1 alpha” value is 2 out of 3 and the “decreases in CXCL14/BRAK” value is on record as 2 out of 3. Also, under setting [2], the “increases in CXCL5/ENA-78” value is given as 3 out of 3, the “increases in IL-8/CXCL8” value is 2 out of 3 and the “increases in Prolactin” value was 2 out of 3.
